Like-named read-outs stand apart in the source and are kept apart here.
Biological target: BTK (Homo sapiens (Human), UniProt Q06187)
Test: In vitro BTK kinase assay: BTK-POLYGAT-LS ASSAY
[1] = read-out: IC50 (10 uM ATP), 10 uM ATP, in vitro Btk kinase assay, Example 41

BTK, sequence (Q06187 whole entry): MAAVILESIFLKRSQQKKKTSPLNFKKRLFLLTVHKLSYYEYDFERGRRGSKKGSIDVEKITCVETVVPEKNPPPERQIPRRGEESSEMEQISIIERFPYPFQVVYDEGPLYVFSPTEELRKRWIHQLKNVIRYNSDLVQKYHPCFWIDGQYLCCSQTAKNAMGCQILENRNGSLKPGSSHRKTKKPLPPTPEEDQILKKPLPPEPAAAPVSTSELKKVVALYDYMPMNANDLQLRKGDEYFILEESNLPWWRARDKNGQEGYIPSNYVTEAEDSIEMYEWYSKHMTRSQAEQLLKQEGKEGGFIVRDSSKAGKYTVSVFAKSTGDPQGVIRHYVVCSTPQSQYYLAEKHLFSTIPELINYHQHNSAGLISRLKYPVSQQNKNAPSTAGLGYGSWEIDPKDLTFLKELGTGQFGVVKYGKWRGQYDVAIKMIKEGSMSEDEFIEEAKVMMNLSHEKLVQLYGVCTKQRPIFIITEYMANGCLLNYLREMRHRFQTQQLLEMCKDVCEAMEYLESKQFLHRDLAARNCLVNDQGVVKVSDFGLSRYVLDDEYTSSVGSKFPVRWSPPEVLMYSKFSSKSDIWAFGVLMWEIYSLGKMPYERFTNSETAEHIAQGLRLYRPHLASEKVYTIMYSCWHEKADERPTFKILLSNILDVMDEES

Compound | IC50 [1] | IC50
Nc1ncnc(N2CC[C@H](C(F)(F)F)[C@@H](N3CCC[C@@H](Nc4cc(Cl)cc(Cl)c4)C3=O)C2)c1F [compound 337, trans (3R)-1′-(6-Amino-5-fluoropyrimidin-4-yl)-3-(3,5-dichlorophenylamino)-4′-(trifluoromethyl)-1,3′-bipiperidin-2-one] | < 100 nM | –
Nc1ncnc(N2CC[C@H](C(F)(F)F)[C@@H](N3CCC[C@H](Nc4cc(Cl)cc(Cl)c4)C3=O)C2)c1F [compound 338, trans (3S)-1′-(6-amino-5-fluoropyrimidin-4-yl)-3-(3,5-dichlorophenylamino)-4′-(trifluoromethyl)-1,3′-bipiperidin-2-one] | – | 1000 to 10000 nM
O=C1C(Nc2cc(Cl)cc(Cl)c2)CCCN1[C@H]1CN(c2ncnc3[nH]ccc23)CC[C@@H]1C(F)(F)F (stereo partly drawn) [compound 339, trans-3-(3,5-Dichlorophenylamino)-1′-(7H-pyrrolo[2,3-d]pyrimidin-4-yl)-4′-(trifluoromethyl)-1,3′-bipiperidin-2-one] | < 100 nM | –
Nc1ncnc(N2CCC(F)C(N3CCCC(Nc4cc(F)cc(Cl)c4)C3=O)C2)c1F (stereo not drawn) [compound 340, 1′-(6-Amino-5-fluoropyrimidin-4-yl)-3-(3-chloro-5-fluorophenylamino)-4′-fluoro-1,3′-bipiperidin-2-one] | – | 100 to 999 nM
Nc1ncnc(N2CC[C@@H](F)[C@@H](N3CCC[C@@H](Nc4cc(F)cc(Cl)c4)C3=O)C2)c1F [compound 341, (3R,3′S,4′R)-1′-(6-amino-5-fluoropyrimidin-4-yl)-3-(3-chloro-5-fluorophenylamino)-4′-fluoro-1,3′-bipiperidin-2-one] | < 100 nM | –
Nc1ncnc(N2CC[C@@H](F)[C@H](N3CCC[C@@H](Nc4cc(F)cc(Cl)c4)C3=O)C2)c1F [compound 342, (3R,3′R,4′R)-1′-(6-amino-5-fluoropyrimidin-4-yl)-3-(3-chloro-5-fluorophenylamino)-4′-fluoro-1,3′-bipiperidin-2-one] | > 10000 nM | –
Nc1ncnc(N2CC[C@H](F)[C@H](N3CCC[C@H](Nc4cc(F)cc(Cl)c4)C3=O)C2)c1F [compound 343, (3S,3′R,4′S)-1′-(6-amino-5-fluoropyrimidin-4-yl)-3-(3-chloro-5-fluorophenylamino)-4′-fluoro-1,3′-bipiperidin-2-one] | > 10000 nM | –
Nc1ncnc(N2CCOCC(N3CCCC(Nc4cc(Cl)cc(Cl)c4)C3=O)C2)c1F (stereo not drawn) [compound 344] | < 100 nM | –
Nc1ncnc(N2CCOCC(N3CCCC(Nc4cc(F)cc(Cl)c4)C3=O)C2)c1F (stereo not drawn) [compound 345, 1-(4-(6-Amino-5-fluoropyrimidin-4-yl)-1,4-oxazepan-6-yl)-3-(3-chloro-5-fluorophenylamino)piperidin-2-one] | < 100 nM | –
Nc1ncnc(N2CCC[C@@H](N3CCCC[C@@H](Nc4cc(F)cc(Cl)c4)C3=O)C2)c1F [compound 346, (R)-1-((R)-1-(6-amino-5-fluoropyrimidin-4-yl)piperidin-3-yl)-3-(3-chloro-5-fluorophenylamino)azepan-2-one] | < 100 nM | –
Nc1ncnc(N2CCC[C@@H](N3CC=CC[C@@H](Nc4cc(F)cc(Cl)c4)C3=O)C2)c1F [compound 347, (R,Z)-1-((R)-1-(6-amino-5-fluoropyrimidin-4-yl)piperidin-3-yl)-3-(3-chloro-5-fluorophenylamino)-3,4-dihydro-1H-azepin-2(7H)-one] | < 100 nM | –
Nc1ncnc(N2CCC[C@@H](N3CC(O)C(O)C[C@@H](Nc4cc(F)cc(Cl)c4)C3=O)C2)c1F (stereo partly drawn) [compound 348, (3R)-1-((R)-1-(6-amino-5-fluoropyrimidin-4-yl)piperidin-3-yl)-3-(3-chloro-5-fluorophenylamino)-5,6-dihydroxyazepan-2-one] | < 100 nM | –
Nc1ncnc(N2CCC(C(F)(F)F)C(N3CC=CC[C@@H](Nc4cc(F)cc(Cl)c4)C3=O)C2)c1F (stereo partly drawn) [compound 349, trans (R,Z)-1-(-1-(6-amino-5-fluoropyrimidin-4-yl)-4-(trifluoromethyl)piperidin-3-yl)-3-(3-chloro-5-fluorophenylamino)-3,4-dihydro-1H-azepin-2(7H)-one] | < 100 nM | –
Nc1ncnc(N2CC[C@@H](C(F)(F)F)[C@H](N3CC=CC[C@@H](Nc4cc(F)cc(Cl)c4)C3=O)C2)c1F [compound 350] | < 100 nM | –
O=C1C(Nc2cc(F)cc(Cl)c2)CCCN1[C@H]1CN(c2ncnc3[nH]ccc23)CC[C@@H]1C(F)(F)F (stereo partly drawn) [compound 352] | < 100 nM | –
Nc1ncnc(N2CC[C@H](C(F)(F)F)[C@@H](N3CC[C@@H](Nc4cc(Cl)cc(Cl)c4)C3=O)C2)c1F [compound 353] | < 100 nM | –
Nc1ncnc(N2CCC[C@@H](N3CC[C@@H](Nc4cc(Cl)cc(Cl)c4)C3=O)C2)c1Cl [compound 354] | – | 100 to 999 nM
O=C1[C@@H](Nc2cc(Cl)cc(Cl)c2)CCN1[C@@H]1CCCN(c2ncnc3[nH]ccc23)C1 [compound 357] | < 100 nM | –
N#CNc1cc(N2CCC[C@@H](N3CCCC(Nc4cc(F)cc(Cl)c4)C3=O)C2)ncn1 (stereo partly drawn) [compound 358] | – | 100 to 999 nM
Nc1ncnc(N2CC(N3CCCC(Nc4cc(F)cc(Cl)c4)C3=O)CC(F)(F)C2)c1F (stereo not drawn) [compound 359] | < 100 nM | –
Nc1cc(N2CCC[C@@H](N3CCCC(Nc4cc(F)cc(Cl)c4)C3=O)C2)ncn1 (stereo partly drawn) [compound 361] | < 100 nM | –

Reference: patent US9790229B2, “Bruton's tyrosine kinase inhibitors” (priority 2009, dated 2017)
